Test results from patent US20050203065A1, “Method of treating ischemia reperfusion injury using adenosine receptor antagonists” (priority 2002, published 2005).

Legend:
[1] = target: T1, recombinant human A2a adenosine receptors (Homo sapiens, UniProt P29274); assay: Radioligand competitive binding, human A2a receptor ([3H]-ZM241385)
T1 construct: purchased PerkinElmer (Boston, Mass.); host or cells: HEK 293
Method: Binding assays were terminated by filtration.
(§1) Membranes (40-70 μg membrane protein), radioligands, and varying concentrations of competing ligands were incubated in triplicate in 0.1 ml buffer HE plus 2 units/mL adenosine deaminase for 2.5 hours at 21° C. The radioligands used for competitive binding assays were: [^3H]-8-cyclopentyl-1,3-dipropyxanthine ([^3H]-DPCPX) (NEN, Boston, Mass.) for A1 and A2b adenosine receptors, [^3H]-4-(2-[7-amino-2-(furyl)(1,2,4)triazole(2,3-a)(1,3,5)triazin-5-ylaminoethyly)phenol ([^3H] ZM241385) for A2a adenosine receptors (Tocris, Bristol, UK), and [^125Iodine]-labeled N6-(4-aminobenzyl)-9-(5-(methylcarbonyl)-β-D-ribofuranosyl) adenine ([^125I]-AB-MECA) or [^3H]-R-N^6-phenylisopropyladenosine (H^3R]-R-PIA) for A3 adenosine receptors (both from NEN, Boston, Mass.). Nonspecific binding was measured in the presence of 10 μM 5′N ethylcarboxamidoadenosine (NECA, from RBI-Sigma, Natick, Mass.) for A1 and A2b receptors, or 10 μM xanthine amino congener (XAC, from RBI-Sigma, Natick, Mass.) for A2a receptors. Binding assays were terminated by filtration over Whatman GF/C glass fiber filters using a BRANDEL cell harvester (Gaithersburg, Md.).

[2] = system: open-chest, barbital-anesthetized dogs; assay: Protocol III (reperfusion): 60 minutes occlusion and 3 hours reperfusion, drug from 10 minutes before release of occlusion, dogs; assay type: in vivo, dog
Method: The studies were performed in open-chest, barbital-anesthetized dogs instrumented to measure heart rate, blood pressure, left ventricular pressure, and regional myocardial blood flow (radioactive microspheres). A mechanical occluder was placed around a proximal portion of the left anterior descending coronary artery to produce ischemia and reperfusion. At the end of the experiments, infarct size was determined-by histochemical staining (patent blue dye and triphenyltetrazolium) and expressed as a percentage of the region at risk or as a percentage of the entire left ventricle.
In the reperfusion protocol (see FIG. 3, protocol III), the dogs were subjected to 60 minutes of coronary artery occlusion followed by three hours of reperfusion. […] The antagonists were administered at a dose of 1 mg/kg i.v. bolus followed by an infusion of 10 μg/kg/min for one hour.

[3] = target: T2, recombinant canine A3 adenosine receptors (Canis lupus familiaris, UniProt Q28309); assay: Radioligand competition binding, canine A3 receptor (R-PIA), transfected HEK 293 membranes; settings: mean ± SEM, n = 3
T2 construct: expressed in transfected cells
T2 sequence (Q28309 1-314): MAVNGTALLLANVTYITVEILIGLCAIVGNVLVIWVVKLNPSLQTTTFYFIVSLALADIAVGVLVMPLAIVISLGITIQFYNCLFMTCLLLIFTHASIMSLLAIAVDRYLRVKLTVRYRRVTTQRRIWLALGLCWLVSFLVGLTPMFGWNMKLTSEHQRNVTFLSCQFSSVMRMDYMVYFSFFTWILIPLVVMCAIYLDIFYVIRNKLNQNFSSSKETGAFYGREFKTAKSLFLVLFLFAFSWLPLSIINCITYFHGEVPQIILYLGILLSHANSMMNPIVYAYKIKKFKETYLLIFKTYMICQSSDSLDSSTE
Method: as §1, with “Md.). The-filters were rinsed three times with 3-4 mL ice-cold 10 mM Tris-HCl, pH 7.4 and 5 mM magnesium chloride (MgCl2) at 4° C., and were counted in a Wallac β-counter (Perkin Elmer, Boston, Mass.).” for “Md.).”

T1 sequence (P29274 whole entry): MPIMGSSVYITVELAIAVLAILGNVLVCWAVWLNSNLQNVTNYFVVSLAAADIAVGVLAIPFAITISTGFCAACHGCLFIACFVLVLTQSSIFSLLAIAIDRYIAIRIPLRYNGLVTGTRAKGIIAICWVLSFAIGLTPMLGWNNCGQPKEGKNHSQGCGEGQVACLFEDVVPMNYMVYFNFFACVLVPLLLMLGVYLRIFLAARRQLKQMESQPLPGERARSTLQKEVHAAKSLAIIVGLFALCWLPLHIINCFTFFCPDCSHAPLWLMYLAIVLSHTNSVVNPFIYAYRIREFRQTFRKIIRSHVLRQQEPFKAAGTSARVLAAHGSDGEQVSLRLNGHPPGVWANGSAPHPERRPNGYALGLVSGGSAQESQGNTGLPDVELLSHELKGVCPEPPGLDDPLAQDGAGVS

Compound: CCCn1c(=O)c2[nH]c(C34CCC(CCC(=O)O)(CC3)CC4)nc2n(CCC)c1=O [BG 9928, 3-[4-(2,6-dioxo-1,3-dipropyl-2,3,6,7-tetrahydro-1H-purin-8-yl)-bicyclo[2.2.2]oct-1-yl]-propionic acid]
- Ki [1]: 4.06 µM
- Infarct size expressed as a percentage of the entire left ventricle, in words [2]: a significant reduction in infarct size was not observed
- Relationship between infarct size and collateral blood flow compared to control group [2]: shifted downward
- Reduction in infarct size (percentage of the risk region) ([2]; 1 mg/kg i.v. bolus + 10 μg/kg/min for one hour from 10 minutes before release of occlusion): 44%
- Infarct size expressed as a percentage of the risk region, in words ([2]; administration during the early phase of reperfusion): reduced significantly
- Ki [3]: 37.7 µM
